Measurements: the supplement of paper PMC10307832

Legend:
Assay in all cases: relative viability (nuclei count vs DMSO), 5 days (fraction); higher = more cells survive
[1] = compound: C[C@]1(O)C[C@@H](c2nc(-c3ccc4ccc(-c5ccccc5)nc4c3)c3c(N)nccn32)C1 [Linsitinib] + O=C(c1cc(Cc2n[nH]c(=O)c3ccccc23)ccc1F)N1CCN(C(=O)C2CC2)CC1 [Olaparib] (partner 8 µM)
In short: (§1)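 One day after seeding in 1536-well plates, lung cancer cell lines were dosed by pin tool. Dosing was either single-drug or a fixed anchor-drug dose plus five library-drug doses (not always all listed) in √10 steps. After 5 days, nuclei were stained in one fix-and-stain step and counted on 4× images, and relative viability is the nuclei count of treated wells over that of vehicle wells, given as the median of duplicate plates.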

[2] = compound: Cc1ccc(C(=O)N(CCCN)[C@@H](c2nc3cc(Cl)ccc3c(=O)n2Cc2ccccc2)C(C)C)cc1 [Ispinesib] + NC(=O)Nc1cc(-c2cccc(F)c2)sc1C(=O)N[C@H]1CCCNC1 [AZD7762] (partner 0.2 µM)
In short: as §1

[3] = compound: Cc1ccc(C(=O)N(CCCN)[C@@H](c2nc3cc(Cl)ccc3c(=O)n2Cc2ccccc2)C(C)C)cc1 [Ispinesib] + COc1cccc2cc(-c3nc([C@H]4CC[C@H](C(=O)O)CC4)n4ncnc(N)c34)[nH]c12 [OSI-027] (partner 0.5 µM)
In short: as §1

[4] = compound: C[C@]1(O)C[C@@H](c2nc(-c3ccc4ccc(-c5ccccc5)nc4c3)c3c(N)nccn32)C1 [Linsitinib] + CC1(C)CCC(c2ccc(Cl)cc2)=C(CN2CCN(c3ccc(C(=O)NS(=O)(=O)c4ccc(N[C@H](CCN5CCOCC5)CSc5ccccc5)c(S(=O)(=O)C(F)(F)F)c4)cc3)CC2)C1 [Navitoclax] (partner 0.5 µM)
In short: as §1

EPLC-272H
relative viability ([1]; first compound 0.01 µM): 1.42 | relative viability ([1]; first compound 0.03162 µM): 0.694 | relative viability ([1]; first compound 0.1 µM): 0.841 | relative viability ([1]; first compound 0.3162 µM): 0.469 | relative viability ([1]; first compound 1 µM): 0.479 | relative viability ([2]; first compound 0.001 µM): 0.226 | relative viability ([2]; first compound 0.003162 µM): 0.253 | relative viability ([2]; first compound 0.01 µM): 0.21 | relative viability ([2]; first compound 0.03162 µM): 0.16 | relative viability ([2]; first compound 0.1 µM): 0.0883 | relative viability ([3]; first compound 0.001 µM): 0.242 | relative viability ([3]; first compound 0.003162 µM): 0.281 | relative viability ([3]; first compound 0.01 µM): 0.238 | relative viability ([3]; first compound 0.03162 µM): 0.167 | relative viability ([3]; first compound 0.1 µM): 0.152 | relative viability ([4]; first compound 0.01 µM): 1.12 | relative viability ([4]; first compound 0.03162 µM): 1.29 | relative viability ([4]; first compound 0.1 µM): 1.41 | relative viability ([4]; first compound 1 µM): 1.2

NCI-H1395
relative viability ([1]; first compound 0.01 µM): 0.451 | relative viability ([1]; first compound 0.1 µM): 0.441 | relative viability ([1]; first compound 0.3162 µM): 0.454 | relative viability ([1]; first compound 1 µM): 0.444 | relative viability ([2]; first compound 0.001 µM): 0.411 | relative viability ([2]; first compound 0.003162 µM): 0.403 | relative viability ([2]; first compound 0.01 µM): 0.356 | relative viability ([2]; first compound 0.03162 µM): 0.31 | relative viability ([2]; first compound 0.1 µM): 0.355 | relative viability ([3]; first compound 0.001 µM): 0.642 | relative viability ([3]; first compound 0.003162 µM): 0.681 | relative viability ([3]; first compound 0.01 µM): 0.67 | relative viability ([3]; first compound 0.03162 µM): 0.384 | relative viability ([3]; first compound 0.1 µM): 0.316 | relative viability ([4]; first compound 0.01 µM): 1.14 | relative viability ([4]; first compound 0.03162 µM): 0.904 | relative viability ([4]; first compound 0.1 µM): 1.47 | relative viability ([4]; first compound 0.3162 µM): 1 | relative viability ([4]; first compound 1 µM): 1.15

NCI-H2085
relative viability ([1]; first compound 0.01 µM): 0.743 | relative viability ([1]; first compound 0.03162 µM): 0.795 | relative viability ([1]; first compound 0.1 µM): 0.901 | relative viability ([1]; first compound 0.3162 µM): 0.713 | relative viability ([1]; first compound 1 µM): 0.805 | relative viability ([2]; first compound 0.001 µM): 0.962 | relative viability ([2]; first compound 0.003162 µM): 1.08 | relative viability ([2]; first compound 0.01 µM): 1.07 | relative viability ([2]; first compound 0.03162 µM): 0.806 | relative viability ([2]; first compound 0.1 µM): 0.466 | relative viability ([3]; first compound 0.001 µM): 0.815 | relative viability ([3]; first compound 0.003162 µM): 0.715 | relative viability ([3]; first compound 0.01 µM): 0.824 | relative viability ([3]; first compound 0.03162 µM): 0.541 | relative viability ([3]; first compound 0.1 µM): 0.264 | relative viability ([4]; first compound 0.01 µM): 1.03 | relative viability ([4]; first compound 0.03162 µM): 1.11 | relative viability ([4]; first compound 0.1 µM): 1.22 | relative viability ([4]; first compound 0.3162 µM): 1.07 | relative viability ([4]; first compound 1 µM): 1.2

NCI-H2087
relative viability ([1]; first compound 0.01 µM): 0.572 | relative viability ([1]; first compound 0.03162 µM): 0.639 | relative viability ([1]; first compound 0.1 µM): 0.609 | relative viability ([1]; first compound 0.3162 µM): 0.51 | relative viability ([1]; first compound 1 µM): 0.47 | relative viability ([2]; first compound 0.001 µM): 1.35 | relative viability ([2]; first compound 0.003162 µM): 1.37 | relative viability ([2]; first compound 0.01 µM): 1.48 | relative viability ([2]; first compound 0.03162 µM): 1.02 | relative viability ([2]; first compound 0.1 µM): 0.558 | relative viability ([3]; first compound 0.001 µM): 0.551 | relative viability ([3]; first compound 0.003162 µM): 0.643 | relative viability ([3]; first compound 0.01 µM): 0.535 | relative viability ([3]; first compound 0.03162 µM): 0.206 | relative viability ([3]; first compound 0.1 µM): 0.102 | relative viability ([4]; first compound 0.01 µM): 1.1 | relative viability ([4]; first compound 0.03162 µM): 1.05 | relative viability ([4]; first compound 0.1 µM): 0.861 | relative viability ([4]; first compound 0.3162 µM): 0.843 | relative viability ([4]; first compound 1 µM): 0.821

NCI-H322M
relative viability ([1]; first compound 0.01 µM): 0.746 | relative viability ([1]; first compound 0.03162 µM): 0.875 | relative viability ([1]; first compound 0.1 µM): 0.87 | relative viability ([1]; first compound 0.3162 µM): 0.772 | relative viability ([1]; first compound 1 µM): 0.798 | relative viability ([2]; first compound 0.001 µM): 0.561 | relative viability ([2]; first compound 0.003162 µM): 0.654 | relative viability ([2]; first compound 0.01 µM): 0.464 | relative viability ([2]; first compound 0.03162 µM): 0.494 | relative viability ([2]; first compound 0.1 µM): 0.484 | relative viability ([3]; first compound 0.001 µM): 0.621 | relative viability ([3]; first compound 0.003162 µM): 0.529 | relative viability ([3]; first compound 0.01 µM): 0.549 | relative viability ([3]; first compound 0.03162 µM): 0.448 | relative viability ([3]; first compound 0.1 µM): 0.331 | relative viability ([4]; first compound 0.01 µM): 1.3 | relative viability ([4]; first compound 0.03162 µM): 1.4 | relative viability ([4]; first compound 0.1 µM): 1.25 | relative viability ([4]; first compound 0.3162 µM): 1.23 | relative viability ([4]; first compound 1 µM): 1.27

NCI-H1734
relative viability ([1]; first compound 0.01 µM): 0.592 | relative viability ([1]; first compound 0.03162 µM): 0.625 | relative viability ([1]; first compound 0.1 µM): 0.593 | relative viability ([1]; first compound 0.3162 µM): 0.57 | relative viability ([1]; first compound 1 µM): 0.535 | relative viability ([2]; first compound 0.001 µM): 0.709 | relative viability ([2]; first compound 0.003162 µM): 0.627 | relative viability ([2]; first compound 0.01 µM): 0.64 | relative viability ([2]; first compound 0.03162 µM): 0.448 | relative viability ([2]; first compound 0.1 µM): 0.245 | relative viability ([3]; first compound 0.001 µM): 0.609 | relative viability ([3]; first compound 0.003162 µM): 0.585 | relative viability ([3]; first compound 0.01 µM): 0.659 | relative viability ([3]; first compound 0.03162 µM): 0.459 | relative viability ([3]; first compound 0.1 µM): 0.177 | relative viability ([4]; first compound 0.01 µM): 0.77 | relative viability ([4]; first compound 0.03162 µM): 0.865 | relative viability ([4]; first compound 0.1 µM): 0.925 | relative viability ([4]; first compound 0.3162 µM): 0.821 | relative viability ([4]; first compound 1 µM): 0.784

EKVX
relative viability ([1]; first compound 0.03162 µM): 0.861 | relative viability ([1]; first compound 0.1 µM): 0.951 | relative viability ([1]; first compound 0.3162 µM): 0.489 | relative viability ([1]; first compound 1 µM): 0.648 | relative viability ([2]; first compound 0.001 µM): 0.777 | relative viability ([2]; first compound 0.01 µM): 0.767 | relative viability ([2]; first compound 0.03162 µM): 0.464 | relative viability ([2]; first compound 0.1 µM): 0.303 | relative viability ([3]; first compound 0.001 µM): 0.731 | relative viability ([3]; first compound 0.003162 µM): 0.75 | relative viability ([3]; first compound 0.01 µM): 0.777 | relative viability ([3]; first compound 0.03162 µM): 0.75 | relative viability ([3]; first compound 0.1 µM): 0.634 | relative viability ([4]; first compound 0.01 µM): 0.967 | relative viability ([4]; first compound 0.03162 µM): 0.637 | relative viability ([4]; first compound 0.1 µM): 0.989 | relative viability ([4]; first compound 0.3162 µM): 0.814 | relative viability ([4]; first compound 1 µM): 0.854

NCI-H596
relative viability ([1]; first compound 0.01 µM): 0.736 | relative viability ([1]; first compound 0.03162 µM): 0.614 | relative viability ([1]; first compound 0.1 µM): 0.677 | relative viability ([1]; first compound 0.3162 µM): 0.66 | relative viability ([1]; first compound 1 µM): 0.604 | relative viability ([2]; first compound 0.001 µM): 1.2 | relative viability ([2]; first compound 0.003162 µM): 0.683 | relative viability ([2]; first compound 0.01 µM): 1.19 | relative viability ([2]; first compound 0.03162 µM): 1.15 | relative viability ([2]; first compound 0.1 µM): 0.423 | relative viability ([3]; first compound 0.001 µM): 0.818 | relative viability ([3]; first compound 0.003162 µM): 0.674 | relative viability ([3]; first compound 0.01 µM): 0.951 | relative viability ([3]; first compound 0.03162 µM): 0.625 | relative viability ([3]; first compound 0.1 µM): 0.29 | relative viability ([4]; first compound 0.01 µM): 0.835 | relative viability ([4]; first compound 0.03162 µM): 1.01 | relative viability ([4]; first compound 0.1 µM): 0.938 | relative viability ([4]; first compound 0.3162 µM): 0.805 | relative viability ([4]; first compound 1 µM): 0.931
